Data as given in patent US20040147028A1, “Yeast treatment” (priority 2002, published 2004).
Read-outs that look alike come from different tables or passages of the source.

Experiments:
yeast protoplasts [1] = system: yeast protoplasts
Procedure: To ensure the competent nature of the formed protoplast to undertake endocytosis, the yeast cells were grown on a modified YEPD media in which the 2% (w/v) dextrose was replaced by 4% (w/v) sucrose as the carbon source to facilitate a mechanism for the absorption and transport of the sucrose C14 by the yeast cells. Protoplasts were formed as described above and isolated again utilising a sorbitol based density gradient. Silicon oil isolation of protoplasts is a convenient method for separating radio labelled cells from a sugar gradient solution. […] Seven micro tubes (400 ul) were prepared for pelletising the protoplasts with each containing 10 ul of Fluorinert FC 77 as a capture solution and 100 ul of Silicon Oil AR 200 (Density of 1.05 g/1) as the media to be used for the separation of sucrose C14 protoplasts. In the experiment 40 ul of a 1M sucrose (made in a 50 ml volumetric flask) was used to which was added 2 ul of the sucrose C14 stock. Then 1.2 ml of the protoplast suspension was placed into a 1.5 ml eppendoff tube and 12 ul of the 1M sucrose C14 solution was placed in the cap. The incubation time started when the cap was sealed onto the eppendoff tube. Next, 100 ul aliquots of the protoplasts were taken at 10 minute intervals and placed sequentially into a series of the prepared 400 ul tubes containing the silicon oil gradients and spun at 7000 rpm for 10 second. The tubes were removed at each time interval and cut through the upper silicon oil fraction to capture the formed protoplast pellet and resuspended in 100 ul of Milli Q water in a scintillation tube containing 3 ml of scintillation fluid. As a standard, 100 ul volumes of the 1M sucrose containing the sucrose C14 were taken for counting but not spun through the silicon oil as were the protoplasts without the isotope but these spun through the silicon oil and counted to avoid quenching correction of the protoplast extract.
A graph of time vs. counts, recorded as nmoles of absorbed sucrose was then prepared to confirm the uptake of our sucrose isotope by the competent protoplasts.
Standards were prepared and measured for background scintillation without the added isotope and 100 ul of a 1M sucrose standard continuing the isotope was measured to obtain counts for a 1 umole solution of sucrose.

yeast protoplasts [2] = experiment: Endocytosis study: yeast protoplasts incubated with dye-bound liposomes, confocal and transmission electron microscopy; format: cell-based, Saccharomyces cerevisiae (YNN 281); conditions: dye incubated alone with the formed protoplasts, unencapsulated
Procedure: An 0.8 ml aliquot of protoplast suspension was dispensed through a large orifice pipette tip (ensuring minimal disturbance of the fragile protoplast) into a sterilised eppendoff tube to which was added 0.8 ml of the liposome suspension obtained from the gel filtration. Both solutions were of equivalent densities to ensure the stability of the protoplast and gently mixed prior to incubation. The tubes were individually wrapped in foil and embedded on their side in a sheet of Styrofoam which was also wrapped in foil to ensure the tubes would remain in place and then immersed into a water bath a 37° C. for the 90 minute incubation.
A 20 ul sample of the incubated suspension was applied to a microscope slide with the edges of the cover slip sealed with an acrylic resin to inhibit drying out of the sample. The slides once made were stored in the dark to reduce the risk of a loss in fluorescence of the FITC conjugate and viewed immediately under phase contrast and fluorescence using the confocal microscope.
The technique used for preparing sections of block-mounted cells for image analysis required 0.5 ml of the protoplast-liposome suspension to be fixed with 50 ul of 1.25% (v/v) glutaraldehyde and 1.0% (w/v) paraformaldehyde in a 0.2M cacodylate buffer at pH 7.2 for 1 hour. The fixed suspension was then mixed with a similar volume of 5.0% agarose and placed at 4° C. for 20 minutes to set. […]

Row | Compound | I-Sucrose 14 C uptake (yeast protoplasts [1]; time 1 min) [nmol] | I-Sucrose 14 C uptake (yeast protoplasts [1]; time 10 min) [nmol] | I-Sucrose 14 C uptake (yeast protoplasts [1]; time 20 min) [nmol] | I-Sucrose 14 C uptake (yeast protoplasts [1]; time 30 min) [nmol] | I-Sucrose 14 C uptake (yeast protoplasts [1]; time 40 min) [nmol] | I-Sucrose 14 C uptake (yeast protoplasts [1]; time 50 min) [nmol] | I-Sucrose 14 C uptake (yeast protoplasts [1]; time 60 min) [nmol] | passive migration across the plasma membrane of protoplasts (false positive) (yeast protoplasts [2])
1 | O[14CH2]C1OC(O[C@@]2([14CH2]O)OC([14CH2]O)C(O)C2O)C(O)C(O)C1O (stereo partly drawn) [I-Sucrose 14 C, I-sucrose-ul-14C] | 1.87 | 6.62 | 13.4 | 17.9 | 26.6 | 35.9 | 56.9 | 
2 | O=C(O)CN(CC(=O)O)Cc1cc2c(cc1O)Oc1cc(O)c(CN(CC(=O)O)CC(=O)O)cc1C21OC(=O)c2ccccc21 [calcein] |  |  |  |  |  |  |  | some passive migration of this molecule across the plasma membrane
3 | fluorescein isothiocyanate dextran [formula 13] |  |  |  |  |  |  |  | eliminated this situation
